Measurements published in patent US20090232796A1, “METHOD OF TREATING CANCER BY ADMINISTERING AN IMMUNOMODULATORY COMPOUND IN COMBINATION WITH A CD40 ANTIBODY OR CD40 LIGAND” (priority 2008, published 2009).

Tests used:
B-CLL cells [1] = assay: Response of B-CLL cells to CD40L-transfected fibroblasts after compound pre-treatment; assay type: cell-based, human; settings: for response of B-CLL cells to CD40L treatment (percentage of viable cells per ml): relapsed patient at baseline, pre-treated 48 hours, then coculture with CD40L-transfected or control fibroblasts 48 hours (FIG. 5)
Text: (§1) L929 cells are derived from an immortalized mouse fibroblast cell line, and are routinely used in in-vitro assays. The L929 cells used herein were obtained from the American Type Culture Collection (ATCC). Raji cells were also obtained from ATCC. Namalwa cells were obtained from the German Resource Centre for Biological Materials DSMZ. B-CLL cells were obtained from the peripheral blood of patients enrolled in a clinical trial.
(§2) Namalwa, Raji, CD40L-transfected fibroblasts and L929 fibroblasts were cultured in RPMI medium (Gibco-Invitrogen) supplemented with 10% FBS. B-CLL cells were cultured in Iscove's medium (Gibco-Invitrogen) plus 15% FBS. Namalwa, Raji and B-CLL cells were cultured with compounds from 2 to 4 days. Fibroblasts were maintained in culture in monolayers. The day before the co-culture, the fibroblasts were treated with mitomycin C to stop proliferation and were then replated. Suspension cells were then added to the fibroblasts and the culture was incubated for 2 to 4 days.
(§3) Flow cytometry was then used to determine cell numbers and the percentage of apoptotic cells using the FACSArray system (BD Biosciences). The cells were stained with 7-Amino-Actinomycin D (7-AAD) (BD Pharmingen) for 10 minutes at room temperature prior to flow cytometry analysis in order to identify non-viable cells.
Pre-treatment with immunomodulatory compounds also augmented the sensitivity of Namalwa cells and CLL cells to CD40 ligation by CD40L. B-CLL cells taken from a relapsed patient at baseline were pre-treated with either 1,3-dioxo-2-(2,6-dioxopiperidin-3-yl)-4-aminoisoindoline or 1-oxo-2-(2,6-dioxopiperidin-3-yl)-4-aminoisoindoline for 48 hours. The cells were then cocultured with either CD40L-transfected fibroblasts or control fibroblasts for another 48 hours. The percentage of viable cells per ml was then measured (FIG. 5). Cells from another patient were pretreated with 1-oxo-2-(2,6-dioxopiperidin-3-yl)-4-aminoisoindoline for 24 hours and then cocultured with either CD40L-transfected fibroblasts or control fibroblasts for an additional 48 hours.

B-CLL cells [2] = assay: CD40 expression in cultured B-CLL cells (anti-CD40 APC antibody mean intensity); assay type: cell-based, human; settings: for mean intensity of anti-CD40 APC antibody: CD5+ CD19+ CLL blasts from a newly diagnosed patient, 4 days in culture (FIG. 2)
Raji cells = assay: CD40 expression on Raji cells by flow cytometry; assay type: cell-based; settings: 10 μM, 48 hours of incubation, vs DMSO control (FIG. 1)
normal primary B cells = assay: Effect on normal primary B cells (p21 expression, viable cells); assay type: cell-based; settings: for viable normal B cells: normal primary B cells in culture; for level of p21 expression: normal primary B cells, after 24 hours and 72 hours of culture
Protocol: as §3
Total RNA was isolated from Namalwa and B-CLL cells using RNAeasy (Qiagen). Gene expression analysis was performed using Affymetrix human U133A gene chips. Double-stranded cDNA was synthesized using […] of total RNA. Biotin-labeled cRNA was synthesized using a MessageAmp aRNA kit (Ambion). […] of cRNA was fragmented and hybridized to each array. The above procedures were performed twice for each RNA sample to obtain replicate biotin-labeled probes.
Cells cultured in the presence or absence of 1,3-dioxo-2-(2,6-dioxopiperidin-3-yl)-4-aminoisoindoline or 1-oxo-2-(2,6-dioxopiperidin-3-yl)-4-aminoisoindoline were characterized using flow cytometry and gene array analysis.

Namalwa cells = assay: Proliferation of Namalwa cells alone, with control fibroblasts or with CD40L-expressing fibroblasts; assay type: cell-based; settings: for sensitivity of Namalwa cells to CD40 ligation by CD40L: pre-treatment with compound, CD40L transfected fibroblasts (FIG. 4)
Text: as §1, §2, §3

CD19^+CD5^+ cells = assay: CD40 on CD19+CD5+ cells of patients undergoing therapy, flow cytometry; assay type: in vivo, human

With Nc1cccc2c1C(=O)N(C1CCC(=O)NC1=O)C2=O (stereo not drawn) [1,3-dioxo-2-(2,6-dioxopiperidin-3-yl)-4-aminoisoindoline] as the molecule, how does the “response of B-CLL cells to CD40L treatment (percentage of viable cells per ml)” value (B-CLL cells [1]) read?
Its value is “increases the response of B-CLL cells to CD40L treatment”.

And the “mean intensity of anti-CD40 APC antibody” value (B-CLL cells [2])?
Its value is “approximately doubled”.

And the “mean intensity of anti-CD40 APC antibody in CD5+CD19+ CLL blasts” value (B-CLL cells [2]; newly diagnosed patient, 0.1, 1.0 or 10 μM, 24 hours, vs DMSO (FIG. 3))?
Its value is “augments the expression of CD40 in a dose responsive manner”.

And the “percentage of CD40+ cells” value (Raji cells)?
Its value is “increase the number of CD40^+ Raji cells”.

And the “viable normal B cells” value (normal primary B cells)?
The value was “dose-dependent increase in viable normal B cells”.

And the “level of p21 expression” value (normal primary B cells)?
Its value is “did not increase the level of p21 expression”.

What about the “proliferation of Namalwa cells” value (Namalwa cells; 0.01-10 μM, alone or in the presence of control fibroblasts (FIG. 4)) of the same molecule?
The value was “inhibiting cell proliferation in a dose dependent manner”.

What about the “sensitivity of Namalwa cells to CD40 ligation by CD40L” value (Namalwa cells) of the same molecule?
The value was “increased the sensitivity of Namalwa cells to CD40 ligation by CD40L”.

Which “response of B-CLL cells to CD40L treatment (total cells/ml)” value (B-CLL cells [1]; newly diagnosed patient, pre-treated 0.1, 1.0 or 10 μM 24 hours, then CD40L-transfected or control fibroblasts 48 h (FIG. 6)) does the source give for Nc1cccc2c1CN(C1CCC(=O)NC1=O)C2=O (stereo not drawn) [1-oxo-2-(2,6-dioxopiperidin-3-yl)-4-aminoisoindoline] here?
The value was “increases the response of B-CLL cells to CD40L treatment”.

And the “response of B-CLL cells to CD40L treatment (percentage of viable cells per ml)” value (B-CLL cells [1])?
Its value is “increases the response of B-CLL cells to CD40L treatment”.

And the “mean intensity of anti-CD40 APC antibody” value (B-CLL cells [2])?
The value was “approximately doubled”.

And the “CD40+ cells among CD19+CD5+ cells” value (CD19^+CD5^+ cells; patient of FIG. 7, after 8 days of therapy, baseline 6.4%)?
Its value is 57.4%.

And the “CD40+ cells among CD19+CD5+ cells” value (CD19^+CD5^+ cells; patient of FIG. 8, after 8 days of therapy, baseline 12.5%)?
The value was 36.7%.

What about the “CD40+ cells among CD19+CD5+ cells” value (CD19^+CD5^+ cells; patient of FIG. 9, after 28 days of therapy, baseline 2.4%) of the same molecule?
The value was 13.9%.

And the “CD40 in B-CLL cells of patients” value (CD19^+CD5^+ cells; patients undergoing therapy, summary statement)?
Its value is “upregulation of CD40 in B-CLL cells”.

What about the “percentage of CD40+ cells” value (Raji cells) of the same molecule?
The value was “increase the number of CD40^+ Raji cells”.

And the “viable normal B cells” value (normal primary B cells)?
The value was “dose-dependent increase in viable normal B cells”.

And the “level of p21 expression” value (normal primary B cells)?
The value was “did not increase the level of p21 expression”.

What about the “sensitivity of Namalwa cells to CD40 ligation by CD40L” value (Namalwa cells) of the same molecule?
The value was “increased the sensitivity of Namalwa cells to CD40 ligation by CD40L”.

B1: CD40L: CD40 ligand, used in the form of CD40L transfected fibroblasts (protein, UniProt P29965 113-261, looked up)
CD40 ligand, soluble form: MQKGDQNPQIAAHVISEASSKTTSVLQWAEKGYYTMSNNLVTLENGKQLTVKRQGLYYIYAQVTFCSNREASSQAPFIASLCLKSPGRFERILLRAANTHSSAKPCGQQSIHLGGVFELQPGASVFVNVTDPSQVSHGTGFTSFGLLKL
modifications: expressed on transfected fibroblasts
B1 was tested. Which “cell growth / cell apoptosis” value (B-CLL cells [1]; B-CLL cells treated with CD40L transfected fibroblasts) did it give?
Its value is “inhibit cell growth and/or augment cell apoptosis”.

And the “cell growth / cell apoptosis” value (Namalwa cells; Namalwa cells treated with CD40L transfected fibroblasts)?
The value was “inhibit cell growth and/or augment cell apoptosis”.
